Experiments:
RT4 cells = assay: In vitro cytotoxicity assay (CellTiter-Glo cell viability); assay type: cell-based, human; settings: 72 hr, triplicate
Experimental: In vitro cytotoxicity of CDDP, oxaliplatin, PAA-CDDP NPs, PEGlow-PAA-CDDP NPs and PEGhigh-PAA-CDDP NPs was evaluated using a superficial bladder cancer cell line (RT4) in triplicate. RT4 cells were purchased from the American Type Culture Collection (ATCC, Manassas, Va.) and cultured in McCoy's 5A (Thermo Fisher Scientific, Waltham, Mass.) at 37° C. under 5% CO2. Cells were seeded in 96-well tissue-treated culture plates at a density of 5×10^3 cells in 100 μl of complete medium and cultured overnight. Then, the supernatant was removed, and a known concentration of CDDP, oxaliplatin, or CDDP NPs (100 μl) was added into the wells. After 72 hr, cell viability was measured using CellTiter-Glo Luminescent Cell Viability Assay Kit (Promega, Madison, Wis.) according to manufacturer's protocol. Acquired data was analyzed to depict sigmoidal dose-response curve with Graph Pad Prism 5 (Graph Pad Software Inc., San Diego, Calif.) using the equation log(inhibitor) vs. response-variable slope.

[1] = systemic CDDP therapy; cited from earlier work
[2] = tested on: N-methyl-N-nitrosourea (MNU) induced rat bladder carcinogenesis model; assay: In vivo efficacy, tumor staging by histopathology; settings: weekly intravesical dosing weeks 8-14, 0.7 mg/ml in 300 μl, sacrifice week 15
From the text: The N-methyl-N-nitrosourea (MNU) rat model of bladder cancer was chosen because it recapitulates human non-muscle invasive bladder cancer, with carcinoma in situ (CIS), non-invasive papillary carcinoma (Ta), and high grade invasive papillary carcinoma (T1) histologies, and progresses from dysplasia to NMIBC to MIBC (Steinberg G D, et al., Cancer Res, 50(20):6668-74 (1990)). This animal model progresses from dysplasia to NMIBC between about week 8 and about week […], making it a desirable time to initiate treatment and a good recapitulation of a chemopreventative treatment model. Additionally, the MNU model represents an outbred strain of NMIBC, as opposed to an inbred strain utilizing immortal clones of genetically identical tumor strains. […] Since no reliable xenograft model was believed to be present of NMIBC that progresses to MIBC in a temporal time-dependent fashion similar to human urothelial cancer, a carcinogen model was chosen to recapitulate the heterogeneity of human disease, study the antineoplastic and immunologic effects of treatment, and reflect the typical progression of non-muscle to muscle invasive cancer. In this model, the presence of NMIBC progresses from about week 8 to about week 15, at which point all rats have NMIBC.
Fischer 344 female rats (age 7 weeks) were anesthetized with an isoflurane vaporizer and nose cone system. […]

[3] = tested on: N-methyl-N-nitrosourea (MNU) induced rat bladder carcinogenesis model; assay: Immunohistochemical staining of bladder sections; assay type: in vivo; settings: CDDP study, week 15
Experimental: Fischer 344 female rats (age 7 weeks) were anesthetized with an isoflurane vaporizer and nose cone system. After complete anesthesia and preparation of the surgical area, a 20G angiocatheter (BD) was placed into the rat's urethra and the bladder was emptied of urine. MNU (1.5 mg/kg MNU dissolved in 0.30 ml of 0.9% saline, pH 6.0) was then instilled into the bladder under 45 min of continued sedation to prevent spontaneous micturition and allow absorption. In order to explore the potential for treatment to prevent recurrence, treatment was initiated from weeks 8-14. Treatment groups (n=5 per group) included CDDP and PAA-CDDP NPs dosed weekly. All formulations were delivered at a concentration of 0.7 mg/ml in 300 μl. Rats were sacrificed at week 15 for histopathologic analysis of bladder tissue. Bladders were formalin fixed, paraffin embedded, sectioned, and stained with hematoxylin-eosin for classification according to the World Health Organization/International Society of Urological Pathology consensus. Tumor staging was performed in a blinded fashion by a board certified genitourinary pathologist.
For immunohistochemical staining, high-temperature antigen retrieval (18-23 psi/126° C.) was performed by immersing the slides in Trilogy (Cell Marque, Hot Springs, Ark.). Endogenous peroxidase activity was blocked for 5 min in using Dual Endogenous Enzyme Block (Dako S2003). Primary Antibody used included KI 67 (Abcam;ab16667). Slides were stained with Impact DAB (Vector Labs, Burlingame, Calif., USA) for 3 min and counterstained with haematoxylin (Richard-Allen, Kalamazoo, Mich., USA). For each section, Ki67+, cells were counted in 10 random 400× fields.
In a MNU-induced rat bladder carcinogenesis model as described in Example 3, Fischer Rat received weekly intravesical administration of Taxotere, DTX NS, or saline, for six weeks.

[4] = 50 patients, intravesical CDDP for more than 4 months; cited from earlier work
[5] = CDDP levels in mouse bladder after intravesical administration; assay type: in vivo; settings: mice
Experimental: Female CF-1 mice (age 8 weeks) were purchased from Harlan (Indianapolis, Ind.) and acclimated in the animal facility for 4 weeks. Mice were randomly divided into different groups (n≥5). Mice were anesthetized with an isoflurane vaporizer and nose cone system and catheterized using polyethylene tubing mounted on a 30G needle. After catheterization, the bladder was emptied of urine by aspiration and/or gentle pressure on the abdomen. Then, 100 μl of CDDP solution, PAA-CDDP NPs, PEGlow-PAA-CDDP NPs or PEGhigh-PAA-CDDP NPs at 0.7 mg/ml CDDP content was instilled into the bladder by intravesical administration. Mice were maintained under anesthesia for 1 h and then allowed to wake up. To assess systemic exposure, mice were euthanized at 1, 4, and 24 h and plasma was obtained for analysis of CDDP content. To assess local toxicity of CDDP solution and CDDP NPs, mice received a total of three intravesical doses spaced one week apart. Bladder tissues were obtained 24 h after the third dose, photographed, and weighed.
200 μl of plasma or bladder were transferred to a clean borosilicate glass cell culture tube, and 1 ml of 22% nitric acid was added. All samples were heated to 90° C. to digest plasma proteins or bladder tissues and to extract platinum. […] CDDP content in the solution was analyzed by AAS. The lowest limit of quantification for CDDP was 250 ng/ml (<1% of the administered dose).

[6] = Bladder uptake and retention in rats (CDDP content by AAS); assay type: in vivo; settings: intravesical
Experimental: Female Fischer 344 rats (age 7 weeks) were purchased from Harlan (Indianapolis, Ind.) and acclimated in the animal facility for 1 week. Before starting the experiment, rats were randomly divided into different groups (n≥5). Rats were anesthetized with an isoflurane vaporizer and nose cone system and catheterized using a 20G angiocatheter sheath. After catheterization, the bladder was voided using aspiration and/or gentle pressure on the abdomen. Then, 300 μl of CDDP solution, PAA-CDDP NPs, PEGlow-PAA-CDDP NPs, or PEGhigh-PAA-CDDP NPs (CDDP content 0.7 mg/ml) was instilled by intravesical administration. Rats were maintained under anesthesia for 1 h and then allowed to wake up. Plasma and bladder tissues were obtained at 1 and 4 h for analysis of CDDP content. Bladder tissues were dipped in PBS and gently squeezed with forceps to remove any residual fluid.
200 μl of plasma or bladder were transferred to a clean borosilicate glass cell culture tube, and 1 ml of 22% nitric acid was added. All samples were heated to 90° C. to digest plasma proteins or bladder tissues and to extract platinum. The solution was heated until a dry yellow film was obtained. Then, 1 ml of 2.2% nitric acid added to dissolve the dried residue containing platinum. CDDP content in the solution was analyzed by AAS. The lowest limit of quantification for CDDP was 250 ng/ml (<1% of the administered dose).

Row | Structure (SMILES) | RT4 cells-IC50 (RT4 cells) | cases with hypersensitivity reactions [1] | rats with T1 high grade tumors in the bladder [2] | Ki67+ staining compared to untreated controls [3] | number of CD3+ cells compared to untreated controls [3] | number of CD8+ cells compared to untreated controls [3] | number of Foxp3+ cells compared to untreated controls [3] | patients who stopped treatment early due to chemical cystitis [4] | patients with anaphylactic reaction due to systemic drug absorption resulting in hypotensive shock [4] | CDDP levels in mouse bladder at 1 h ([5]; 1 h under anesthesia) | CDDP levels in mouse bladder at 4 h ([5]; 4 h (3 h ambulatory time)) | CDDP levels in rat bladder at 4 h [6]
1 | N.N.[Cl][Pt][Cl] [Cisplatin, cis-diamminedichloridoplatinum (II)] | 1.39 ± 0.03 μg/ml of Pt | 5-20% | 20% | decreased Ki67+ staining, though statistically indistinguishable from the untreated control group | without differences | significantly lower numbers | without differences | 6% | 14% | similar | below the limit of quantitation | below the level of detection
2 | N.N.O=C([O-])C1(C(=O)[O-])CCC1.[Pt+2] [Carboplatin] | 17.18 ± 0.056 μg/ml of Pt | – | – | – | – | – | – | – | – | – | – | –

From patent publication US20200009068A1, “NANOPARTICLE FORMULATIONS FOR ENHANCED DRUG DELIVERY TO THE BLADDER” (The Johns Hopkins University, priority 2017, published 2020)
